Data reported in US4576943A, “Pyrazolo[1,5-a]pyrimidines” (American Cyanamid Company, priority 1984, dated 1986).

How the values were obtained:
[1] = Hypotensive activity in spontaneously hypertensive rats; assay type: in vivo, spontaneously hypertensive rats of the Okamoto strain; conditions: 100 mg/kg by gavage, two doses 24 hours apart, measured at 28 hours after the initial dose; one or two rats
Procedure: The novel compounds of the present invention are active hypotensive agents and were tested for hypotensive activity by the method of P. S. Chan and D. Poorvin, Clinical and Experimental Hypertension, 1 (6), 817-830 (1979). […] One to 3 rats are used per test compound. A rat is dosed by gavage with a test compound suspended in 2% pre-boiled starch at a concentration of 50 mg/ml, at a dose of 100 mg/kg of body weight or less, with 0.9% sodium chloride loading at a dose of 25 ml/kg of body weight. A second identical dose of the test compound, without sodium chloride loading is given 24 hours later. At 28 hours after the initial dose the mean arterial blood pressure is measured by the method of Chan and Poorvin (see above). The procedure is repeated in a second and third rat when necessary. The results of this test on representative compounds of the present invention which were obtained using one or two rats, at a dose of 100 mg/kg of body weight appear below in Table I.

[2] = system: brain-specific receptors (tritiated benzodiazepine binding, P2-synaptosomal fraction of rat whole cortex); assay: Inhibition of the binding of 3H-benzodiazepine to brain-specific receptors of rats; set-up: species or system Male albino rats (Wistar strain); conditions: 3H-diazepam (1.5 nM) or 3H-flunitrazepam (1.0 nM), pH 7.4, 30 minutes in ice; test concentration not given
Hypoxic Survival Test = assay type: in vivo, Royal Hart mice; conditions: for % Survivors: 10% oxygen, 5 minutes
Procedure: Groups of 20 Royal Hart mice (6 weeks of age) are injected intraperitoneally with 10, 50 or 100 mg/kg of test compound 30 minutes prior to placing them in a hypoxic mixture (10% oxygen in 90% […]) and measuring survival after 5 minutes.
A separate group of 20 mice is injected intraperitoneally with saline solution (0.01 cc/g of body weight) and processed as described above.
Still another group of 20 mice is injected intraperitoneally with 0.125 mg/kg of physostigmine and processed as described above.

Structure (SMILES) | Mean Arterial Blood Pressure [1] | % Inhibition of the binding of 3H-benzodiazepine [2] [%] | other results
N#Cc1c(N2CCN(Cc3c(Cl)cccc3Cl)CC2)nn2c(-c3cccnc3)ccnc12 [2-[4-[(2,6-Dichlorophenyl)methyl]-1-piperazinyl]-7-(3-pyridinyl)pyrazolo[1,5-a]pyrimidine-3-carbonitrile] | 124 mm of mercury |  | 
N#Cc1c(N2CCN(CCO)CC2)nn2c(-c3cccnc3)ccnc12 [2-[4-(2-Hydroxyethyl)-1-piperazinyl]-7-(3-pyridinyl)pyrazolo[1,5-a]pyrimidine-3-carbonitrile] |  | 25 | 
N#Cc1c(N2CCN(Cc3ccccc3)CC2)nn2c(-c3ccc(Cl)cc3)ccnc12 [7-(4-Chlorophenyl)-2-[4-(phenylmethyl)-1-piperazinyl]pyrazolo[1,5-a]pyrimidine-3-carbonitrile] | 142 mm of mercury |  | 
N#Cc1c(N2CCSCC2)nn2c(-c3cccc(C(F)(F)F)c3)ccnc12 [2-(4-Thiomorpholinyl)-7-[3-(trifluoromethyl)phenyl]pyrazolo[1,5-a]pyrimidine-3-carbonitrile] | 148 mm of mercury |  | 
N#Cc1c(N2CCN(CCO)CC2)nn2c(-c3cccc(C(F)(F)F)c3)ccnc12 [2-[4-(2-Hydroxyethyl)-1-piperazinyl]-7-[3-(trifluoromethyl)phenyl]pyrazolo[1,5-a]pyrimidine-3-carbonitrile] | 111 mm of mercury | 41 | % Survivors (Hypoxic Survival Test; 10 mg/kg i.p.): 45%
CNC(=O)Oc1ccc2c(c1)[C@]1(C)CCN(C)[C@@H]1N2C [physostigmine, reference compound] |  |  | physostigmine treated mice survive (Hypoxic Survival Test; 0.125 mg/kg i.p., 5 minute exposure): 60-80%
COc1cccc(CN2CCN(c3nn4c(-c5cccc(C(F)(F)F)c5)ccnc4c3C#N)CC2)c1 [2-[4-[(3-Methoxyphenyl)methyl]-1-piperazinyl]-7-[3-(trifluoromethyl)phenyl]pyrazolo[1,5-a]pyrimidine-3-carbonitrile] | 140 mm of mercury |  | 
Cc1cc(-c2ccncc2)n2nc(N3CCN(Cc4ccccc4)CC3)c(C#N)c2n1 [5-Methyl-2-[4-(phenylmethyl)-1-piperazinyl]-7-(4-pyridinyl)pyrazolo[1,5-a]pyrimidine-3-carbonitrile] | 122 mm of mercury |  | 
N#Cc1c(N2CCSCC2)nn2c(-c3cccnc3)ccnc12 [7-(3-Pyridinyl)-2-(4-thiomorpholinyl)pyrazolo[1,5-a]pyrimidine-3-carbonitrile] | 141 mm of mercury |  | % Survivors (Hypoxic Survival Test; 100 mg/kg i.p.): 50%
COc1cccc(CN2CCN(c3nn4c(-c5cccnc5)ccnc4c3C#N)CC2)c1.Cl [2-[4-[(3-Methoxyphenyl)methyl]-1-piperazinyl]-7-(3-pyridinyl)pyrazolo[1,5-a]pyrimidine-3-carbonitrile, monohydrochloride] | 138 mm of mercury | 18 | 
N#Cc1c(N2CCCCC2)nn2c(-c3cccnc3)ccnc12 [2-(1-Piperidinyl)-7-(3-pyridinyl)pyrazolo[1,5-a]pyrimidine-3-carbonitrile] | 141 mm of mercury | 14 | % Survivors (Hypoxic Survival Test; 100 mg/kg i.p.): 45%
N#Cc1c(N2CCN(Cc3cccc(Cl)c3)CC2)nn2c(-c3cccnc3)ccnc12 [2-[4-[(3-Chlorophenyl)methyl]-1-piperazinyl]-7-(3-pyridinyl)pyrazolo[1,5-a]pyrimidine-3-carbonitrile] | 137 mm of mercury | 12 | 
N#Cc1c(N2CCN(Cc3ccccc3)CC2)nn2c(-c3cccnc3)ccnc12 [2-[4-(Phenylmethyl)-1-piperazinyl]-7-(3-pyridinyl)pyrazolo[1,5-a]pyrimidine-3-carbonitrile] | 124 mm of mercury |  | % Survivors (Hypoxic Survival Test; 50 mg/kg i.p.): 40%
N#Cc1c(N2CCN(Cc3ccccc3)CC2)nn2c(-c3cccc(Cl)c3)ccnc12 [7-(3-Chlorophenyl)-2-[4-(phenylmethyl)-1-piperazinyl]pyrazolo[1,5-a]pyrimidine-3-carbonitrile] | 147 mm of mercury |  | % Survivors (Hypoxic Survival Test; 50 mg/kg i.p.): 47%
N#Cc1c(N2CCN(Cc3ccc(Cl)cc3)CC2)nn2c(-c3cccc(C(F)(F)F)c3)ccnc12 [2-[4-[(4-Chlorophenyl)methyl]-1-piperazinyl]-7-[3-(trifluoromethyl)phenyl]pyrazolo[1,5-a]pyrimidine-3-carbonitrile] | 127 mm of mercury | 15 | 
COc1ccc(CN2CCN(c3nn4c(-c5cccc(C(F)(F)F)c5)ccnc4c3C#N)CC2)cc1 [2-[4-[(4-Methoxyphenyl)methyl]-1-piperazinyl]-7-[3-(trifluoromethyl)phenyl]pyrazolo[1,5-a]pyrimidine-3-carbonitrile] | 136 mm of mercury | 18 | 
N#Cc1c(N2CCN(CCCCOc3ccccc3)CC2)nn2c(-c3cccnc3)ccnc12 [2-[4-(4-Phenoxybutyl)-1-piperazinyl]-7-(3-pyridinyl)pyrazolo[1,5-a]pyrimidine-3-carbonitrile] | 144 mm of mercury | 33 | 
N#Cc1c(N2CCN(Cc3c(Cl)cccc3Cl)CC2)nn2c(-c3cccc(C(F)(F)F)c3)ccnc12 [2-[4-[(2,6-Dichlorophenyl)methyl]-1-piperazinyl]-7-[3-(trifluoromethyl)phenyl]pyrazolo[1,5-a]pyrimidine-3-carbonitrile] |  | 22 | 
NC(=O)c1c(N2CCN(Cc3ccccc3)CC2)nn2c(-c3cccc(C(F)(F)F)c3)ccnc12 [2-[4-(Phenylmethyl)-1-piperazinyl]-7-[3-(trifluoromethyl)phenyl]pyrazolo[1,5-a]pyrimidine-3-carboxamide] |  | 14 | 
CN(C)C=NC(=O)c1c(N2CCN(Cc3ccccc3)CC2)nn2c(-c3cccc(C(F)(F)F)c3)ccnc12 [N-[(Dimethylamino)methylene]-2-[4-(phenylmethyl)-1-piperazinyl]-7-[3-(trifluoromethyl)phenyl]pyrazolo-[1,5-a]pyrimidine-3-carboxamide] | 103 mm of mercury |  | 
N#Cc1c(N2CCN(CCCCOc3ccccc3)CC2)nn2c(-c3cccc(C(F)(F)F)c3)ccnc12 [2-[4-(4-Phenoxybutyl)-1-piperazinyl]-7-[3-(trifluoromethyl)phenyl]pyrazolo[1,5-a]pyrimidine-3-carbonitrile] | 147 mm of mercury | 26 | 
N#Cc1c(N2CCN(Cc3cccc(Cl)c3)CC2)nn2c(-c3cccc(C(F)(F)F)c3)ccnc12 [2-[4-[(3-Chlorophenyl)methyl]-1-piperazinyl]-7-[3-(trifluoromethyl)phenyl]pyrazolo[1,5-a]pyrimidine-3-carbonitrile] |  | 33 | 
CN1CCN(c2nn3c(-c4cccc(C(F)(F)F)c4)ccnc3c2C#N)CC1 [2-(4-Methyl-1-piperazinyl)-7-[3-(trifluoromethyl)phenyl]pyrazolo[1,5-a]pyrimidine-3-carbonitrile] | 139 mm of mercury |  | 
N#Cc1c(N2CCC(Cc3ccccc3)CC2)nn2c(-c3cccc(C(F)(F)F)c3)ccnc12 [2-[4-(Phenylmethyl)-1-piperidinyl]-7-[3-(trifluoromethyl)phenyl]pyrazolo[1,5-a]pyrimidine-3-carbonitrile] | 142 mm of mercury | 46 | 
N#Cc1c(N2CCN(Cc3ccc(Cl)cc3)CC2)nn2c(-c3cccnc3)ccnc12 [2-[4-[(4-Chlorophenyl)methyl]-1-piperazinyl]-7-(3-pyridinyl)pyrazolo[1,5-a]pyrimidine-3-carbonitrile] | 137 mm of mercury |  | 
N#Cc1c(N2CCN(c3ccccn3)CC2)nn2c(-c3cccnc3)ccnc12 [7-(3-Pyridinyl)-2-[4-(2-pyridinyl)-1-piperazinyl]pyrazolo[1,5-a]pyrimidine-3-carbonitrile] | 143 mm of mercury |  | 
